Laboratory results: paper PMC8042910, “Adiponectin-mimetic novel nonapeptide rescues aberrant neuronal metabolic-associated memory deficits in Alzheimer’s disease” (Molecular Neurodegeneration, 2021)
Residues, ends and D or L forms follow the SMILES beside them.

Tests used:
AdipoR1/p-AMPK signaling = AdipoR1/p-AMPK signaling in in vitro AD models (immunoblot, ELISA, AMPK assay); type: cell-based, human; conditions: 10 μM, 12 h
Method: Human neuroblastoma SH-SY5Y cells were seeded (in 6-well culture plates for immunoblotting and in chamber slides for immunofluorescence) in DMEM (Dulbecco’s modified Eagle medium) containing 10% fetal bovine serum (FBS) and 1% antibiotics (penicillin-streptomycin) and incubated at 37 °C in humidified air containing 5% CO2. Once the cells reached 70–80% confluence, the cells were transfected using the pCAX vector containing the APPswe/ind gene using Lipofectamine 3000 (Life Technologies) according to the provider’s protocols. […]
SH-SY5Y (2×10^4/ml) cells used for ELISA and AMPK assays were cultured in 35-mm dishes in the presence of culture medium of DMEM containing FBS (10%) and antibiotics (1%) at 37°C in humidified air containing 5% CO2 to 70-75% confluences. […] Seventy-two hours after transfections, cells were treated with Os-pep (10 µM) for 12 h and cell lysates were collected and analyzed using ELISAs and immunoassays, as appropriate.
The AdipoR1 expressions were measured in the brain homogenates from APP/PS1 and Adipo-^/- mice and in lysates from APPswe/ind-overexpressed SH-SY5Y cells transfected with the AdipoR1 siRNA and treated Os-pep (10 µM) in vitro using the mouse and human AdipoR1 ELISA kits, accordingly to the provider’s instructions (MyBioSource). […]

Synap and PSD95 = Synap and PSD95 in APPswe/ind-overexpressing SH-SY5Y cells, immunoblot; type: cell-based, human; conditions: Os-pep 10 μM
Method: Human neuroblastoma SH-SY5Y cells were seeded (in 6-well culture plates for immunoblotting and in chamber slides for immunofluorescence) in DMEM (Dulbecco’s modified Eagle medium) containing 10% fetal bovine serum (FBS) and 1% antibiotics (penicillin-streptomycin) and incubated at 37 °C in humidified air containing 5% CO2. Once the cells reached 70–80% confluence, the cells were transfected using the pCAX vector containing the APPswe/ind gene using Lipofectamine 3000 (Life Technologies) according to the provider’s protocols. AdipoR1 siRNA (h) (SC-60123) and AMPK siRNA (h) (SC-45312) (Santa Cruz Biotechnology, Inc.) were used at a concentration of 10 μM per transfection and expressed for 72 h according to the manufacturer’s protocol (Santa Cruz Biotechnology, Inc.). A negative siRNA (Ambion, Thermo Fisher Scientific) was used as a control. Seventy-two hours after the transfections, the cells were exposed to Os-pep (10 μM) for 12 h and then subjected to immunoblotting and immunofluorescence analyses.
Human neuroblastoma SH-SY5Y cells were treated with 1 µM of insulin for 48 h to produce intrinsic insulin-resistant human neuroblastoma (SH-SY5YIR) cells. […]

[1] = system: pre- and postsynaptic protein markers; test: Pre- and postsynaptic protein markers in mouse brain, immunoblot; type: in vivo; conditions: 5 μg/g, i.p., alternating days for 45 days
Method: (§1) Os-pep was dissolved in double-deionized distilled water and then prepared in normal saline to obtain the final administered concentration. The AβO, APP/PS1, Adipo^−/− and WT mice were injected i.p. with Os-pep at a dosage of 5 μg/g on alternating days for 45 days. WT, Veh-injected transgenic-APP/PS1 and Adipo^−/− mice were injected with the same volume of double-deionized water and normal saline. The WT control and sham mice as well as the Veh-injected AβO, APP/PS1, Adipo^−/− and HFD mice received the same volume of double-deionized distilled water or normal saline.
(§2) The protein concentrations of the homogenates of mouse brain tissue and cell lysates in vitro were measured using a Bio-Rad protein assay kit (Bio-Rad Laboratories, Hercules, CA), and immunoblotting was performed as we previously described, using primary antibodies (detailed information described in the supplementary Table 1). Western blotting membranes have been cut prior to original western blot images and original western blot images are available at supplementary material.

p-PI3K/Akt/GSK3β (Ser 9) = test: Downstream insulin signaling in mouse brain, immunoblot; type: in vivo; conditions: AβO-treated, APP/PS1 and Adipo−/− mice, 5 μg/g, i.p., alternating days for 45 days
Method: as §1, §2

WT C57BL/6 N mice = type: in vivo, mouse; conditions: i.p. bolus 10, 20, 30, 40 and 50 mg/kg, observed 1 week, n = 5/group, data not shown
Method: To optimize and analyze the toxicity and effective dose of Os-pep, we performed a separate group of studies using wild-type (WT) male C57BL/6 N mice to examine the toxicity of Os-pep in vivo. The WT mice were rearranged into 5 groups (n = 5 mice/group). Os-pep was administered in bolus dosages of 10, 20, 30, 40 and 50 mg/kg in normal saline to the respective groups, and the Veh-injected mice received the same amount of normal saline as WT mice. We checked for signs of systemic toxicity, such as head tilt, tremor, abnormal physical activity and squinting, for 1 week in WT mice that had been treated with i.p. bolus doses of Os-pep (10, 20, 30, 40 and 50 mg/kg).
To optimize and analyze the toxicity and effective dose of Os-pep, we performed a separate group of studies in order to assess signs of systemic toxicity, such as head tilt, tremor, changes in physical activity and squinting, for 1 week in normal WT mice injected i.p. with bolus doses of Os-pep (10, 20, 30, 40 and 50 mg/kg) to investigate the safety profile of bolus doses of Os-pep.

C[C@@H](O)[C@H](NC(=O)[C@@H]1CCCN1C(=O)CNC(=O)[C@H](CS)NC(=O)[C@@H]1CCCN1C(=O)CNC(=O)[C@H](CCC(N)=O)NC(=O)[C@@H](NC(=O)[C@@H](N)CS)[C@@H](C)O)C(=O)O [Os-pep] (H-CTQGPCGPT-OH; N-terminus and C-terminus assumed)
AdipoR1/AMPK signaling with AdipoR1 knockdown (AdipoR1/p-AMPK signaling; APPswe/ind SH-SY5Y with AdipoR1 siRNA, ELISA and AMPK assay): did not promote the stimulation of AdipoR1/AMPK signaling | neuronal AdipoR1/p-AMPK signaling (AdipoR1/p-AMPK signaling; AβO-treated and human APPswe/ind-overexpressing SH-SY5Y cells): significantly increased neuronal AdipoR1/p-AMPK signaling | Synap and PSD95 expression with AdipoR1 siRNA (Synap and PSD95; APPswe/ind-overexpressing SH-SY5Y cells exposed to AdipoR1 siRNA): did not restore or increase | Synap and PSD95 expression (Synap and PSD95; APPswe/ind-overexpressing SH-SY5Y cells): restored and significantly increased | pre- and postsynaptic protein levels ([1]; AβO-treated, APP/PS1 and Adipo−/− mice): remarkably increased | effects on pre- and postsynaptic markers, Os-pep alone ([1]; WT normal mice): did not have any detrimental effects | p-PI3K/Akt/GSK3β (Ser 9) levels (p-PI3K/Akt/GSK3β (Ser 9)): reversed the reduction | signs of systemic toxicity (head tilt, tremor, physical activity, squinting) (WT C57BL/6 N mice): no toxicity was observed
